Test results from patent publication US20200239530A1, “COMPOUNDS AND METHODS OF MODULATING PROTEIN DEGRADATION” (Vividion Therapeutics, Inc., priority 2017, published 2020).
Like-named read-outs stand apart in the source and are kept apart here.

Target: T1, AREL1 Apoptosis-resistant E3 ubiquitin protein ligase 1 (Homo sapiens, UniProt O15033)
T1 construct: endogenous in cells
T1 sequence (O15033 1-823): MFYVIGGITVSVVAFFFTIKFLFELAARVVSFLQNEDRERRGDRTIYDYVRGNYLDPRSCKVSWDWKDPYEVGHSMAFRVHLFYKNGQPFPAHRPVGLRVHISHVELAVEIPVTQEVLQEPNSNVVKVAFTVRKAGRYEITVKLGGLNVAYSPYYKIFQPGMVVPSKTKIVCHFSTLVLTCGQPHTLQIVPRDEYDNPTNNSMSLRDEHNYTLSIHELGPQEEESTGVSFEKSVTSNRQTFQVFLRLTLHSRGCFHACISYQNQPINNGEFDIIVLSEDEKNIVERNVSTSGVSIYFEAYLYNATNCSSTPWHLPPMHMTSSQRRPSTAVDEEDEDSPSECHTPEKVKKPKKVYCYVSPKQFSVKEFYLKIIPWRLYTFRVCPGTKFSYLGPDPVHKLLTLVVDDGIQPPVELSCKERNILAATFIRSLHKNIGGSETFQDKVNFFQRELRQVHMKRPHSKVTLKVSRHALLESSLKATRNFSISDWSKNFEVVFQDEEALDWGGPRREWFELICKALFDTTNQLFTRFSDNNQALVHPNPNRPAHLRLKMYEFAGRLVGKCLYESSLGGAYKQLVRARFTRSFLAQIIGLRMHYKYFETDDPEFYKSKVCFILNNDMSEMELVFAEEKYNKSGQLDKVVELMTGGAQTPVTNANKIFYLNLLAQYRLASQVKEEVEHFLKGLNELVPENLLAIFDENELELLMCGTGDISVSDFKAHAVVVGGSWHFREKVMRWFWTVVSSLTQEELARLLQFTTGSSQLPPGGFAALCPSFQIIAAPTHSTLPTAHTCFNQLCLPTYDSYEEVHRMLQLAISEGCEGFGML
Assay: Cysteine liganding, probe competition
Format: binding
Procedure: Cells were resuspended in cold PBS on ice and sonicated with a probe sonicator to achieve lysis. 200 μL of lysate containing 5 mg/ml proteome was treated with 2 μL of 100× compound stock in a 2-mL deep-well plate. The treated lysate was subsequently incubate at 25° C. for 1 hr with shaking at 600 rpm. The treated lysate was further incubated with 2 μL of 10 mM desthiobiotin iodoacetamide probe at 25° C. for 1 hr with shaking at 600 rpm. Next, the lysate was further treat with 20 μL of solution of PBS containing 11 mM MgSO4 and 2.5% Turbonuclease stock and incubated at 25° C. for 20 minutes with shaking at 600 rpm. 1.7 mL ice-cold acetone was added to each well and incubated at −20° C. for 2 hr, followed by max speed (4200 rpm) spin for 45 min. Acetone was then decanted and the plates were blotted to remove acetone. The plates were then dried in open air for 20 minutes. After drying, the plates were then covered with foil seal and stored at −80° C. overnight.
The next day, samples were re-suspended in 90 μL of solution of 9M urea, 50 mM ammonium bicarbonate and 10 mM DTT by incubating at 65C for 20 min with shaking at 1500 rpm. Next, samples were cooled to 37° C. and then 10 μL of 500 mM iodoacetamide solution (92.48 mg/ml) was added. The samples were then incubated at 37° C. for 30 min with shaking at 600 rpm.
ZEBA desalting plates were equilibrated 4 times using 250 μL of 2M urea, 50 mM ammonium bicarbonate solution followed by centrifugation at 1500 rpm for 2 minutes. After equilibration was complete, samples were applied to ZEBA desalting plate and spin at 1500 rpm for 2 min on top of 1 mL 96-well deep-well collection plate to buffer exchange samples. 4 μL of solution containing 25 mM CaCl2 and 0.25 mg/mL trypsin was added to the plate and the plate was then incubated at 37° C. for 2 hrs with shaking at 600 rpm. 300 μL of solution containing 5% high-capacity streptavidin agarose slurry in 25 mM Tris-HCl pH 7.5, 150 mM NaCl, and 0.1% NP-40 then added. The plate was incubated at 25° C. for 2 hrs with shaking at 600 rpm. Samples were transferred to 25 μm filter plate and spin at 1000 rpm for 2 min. Samples were then washed 3 times with 0.75 mL of wash buffer (25 mM Tris-HCl pH 7.5, 150 mM NaCl, and 0.1% NP-40) followed by washing 3 times with 0.75 mL PBS, and then 4 times with 0.75 mL water. After the washing step, samples were eluted into polypropylene 96-well plate by addition of 250 µL of 50% MeCN/water, 0.1% formic acid and allowed to gravity drip for 10 min, followed by centrifugation at 1000 rpm for 2 min. Speedvac was used to dry the plates at about 45° C. for […]. Then the plates were covered with foil seal and stored at −20° C.
Samples were resuspended by addition of 20 μl of 12.5% ACN, 0.1% formic acid solution, covered with foil seal, and incubated at 42° C. for 10 minutes with shaking at 600 rpm. Then add 30 μL of 0.1% formic acid solution was added and the plate was covered and incubated at 42° C. for 10 minutes with shaking at 600 rpm. Seal plate was then sealed with a 96-well silicon mat for analysis.

COc1ccc2c(c1)CCCN2C(=O)CCl [KB02]
inhibition at 100 µM (100 uM, UniProt O15033, read-out: KB02_100 uM_percent_inhibition): 77% | inhibition at 500 µM (500 uM, UniProt O15033, read-out: KB02_500 uM_percent_inhibition): 96% | Liganded (AREL1 Res# 382, uniprot O15033): YES

C=CC(=O)N(c1ccccc1)c1ccc(Br)cc1 [KB05]
inhibition at 100 µM (100 uM, UniProt O15033, read-out: KB05_100 uM_percent_inhibition): 69% | inhibition at 500 µM (500 uM, UniProt O15033, read-out: KB05_500 uM_percent_inhibition): 92%

O=C(CCl)Nc1cc(C(F)(F)F)cc(C(F)(F)F)c1 [KBO3]
KB03_100 uM_percent_inhibition (100 uM, UniProt O15033): 57% | KB03_500 uM_percent_inhibition (500 uM, UniProt O15033): 87% | 100 Max (uniprot O15033): 56.8 | 100 ave (uniprot O15033): 49.1 | 500 ave (uniprot O15033): 55.1 | 500 Max (uniprot O15033, unit assumed): 55.1%
